We go through three compounds from patent publication US20260008762A1, “CANNABINOID ACIDS CRYSTALLINE FORMS, METHODS OF PRODUCING, AND USES THEREOF” (priority 2022, published 2026).

Series [1] is described as follows: Thermogravimetric analysis (TGA) of crystalline form. Type of series: physicochemical. To be noted: crystalline single component form, dry nitrogen flow. How it is done: Thermal gravimetric analysis (TGA) was carried out using a TA instruments 2910 under dry nitrogen flow (30 mL/min for both the furnace and the balance). For a typical experiment, 5-10 mg of solid material was placed into the pan and was allowed to equilibrate at room temperature under nitrogen for approximately 5 minutes prior to the start of each experiment to ensure a stable baseline. A heating rate of 1° C./min or 5° C./min was utilized.

Series [2] has as its target SARS-CoV-2 spike protein S1 C-terminal domain (Severe acute respiratory syndrome coronavirus 2, UniProt P0DTC2). To be noted: can inhibit the virus' ability to enter new host cells; cited from earlier work.
The conditions of series [3]: compared with THCa under similar conditions; cited from earlier work.

In the case of `C=C(C)[C@@H]1CCC(C)=C[C@H]1c1c(O)cc(CCCCC)c(C(=O)O)c1O` [CBDa, cannabidiolic acid], the TGA degradation onset result in series [1] was “about 150 °C”. Besides, the “binding to SARS-CoV-2 spike protein S1 C-terminal domain” value in series [2] is given as “found to bind to the SARS-CoV-2 spike protein S1 C-terminal domain”. The rate of decarboxylation result in series [3] is “decarboxylates at a faster rate than THCa”.

Turning to `CCCCCc1cc(O)c(C/C=C(\C)CCC=C(C)C)c(O)c1C(=O)O` [CBGa, cannabigerolic acid], the TGA degradation onset result in series [1] was “about 115 °C”. In addition, the “binding to SARS-CoV-2 spike protein S1 C-terminal domain” value in series [2] is “found to bind to the SARS-CoV-2 spike protein S1 C-terminal domain”.

Consider `CCCCCc1cc2c(c(O)c1C(=O)O)[C@@H]1C=C(C)CC[C@H]1C(C)(C)O2` [THCa, tetrahydrocannabinolic acid], for which the TGA degradation onset entry in series [1] is “about 125 °C”.
